Test: gradient 5% acetonitrile 3 min, to 50% in 2 min, to 85% in 15 min, held 3 min, 100 µL/min
Conditions: column: Zorbax Extend-C18 2.1 x 50 mm; eluents: water / acetonitrile, 0.1% formic acid
Procedure, shortened: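 Retention time was recorded from adduct peaks, which were picked computationally and each inspected manually. Pure standards ran in mixtures of ~100 molecules on HPLC coupled to a quadrupole time-of-flight mass spectrometer, in positive and negative ionization mode, through a Zorbax Extend-C18 column (2.1 × 50 mm, 1.8 μm) at 100 μL/min. Eluents were water and acetonitrile, each with 0.1% formic acid.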

RP-LC retention time [s] | SMILES
817 | O=C(c1cc(F)ccc1F)N1CCN(C(=O)c2nnn3c2COC(c2ccccc2)C3)CC1 (configuration not stated)
724 | COc1cccc(NC(=O)CN2C(=O)NC3(CCCCC3)C2=O)c1
808 | O=C(NCc1ccc(Cl)cc1)C1CCCN(c2nn3c(=O)c4c(nc3s2)CCCC4)C1 (configuration not stated)
677 | COc1ccc(N2CCN(CC(O)c3ccc(C)cc3)CC2)cc1 (configuration not stated)
627 | Cn1nc(N2CCC(NC(=O)Cc3cccs3)C2)ccc1=O (configuration not stated)
1050 | Cn1c(=O)n(CC(=O)Nc2cccc(Cl)c2)c(=O)c2cnc(-c3ccccc3)nc21
596 | Cc1ccc(CN2C[C@@H](CO)[C@H](c3nc(-c4cccnc4)no3)C2)o1
736 | Cn1c(-c2cccc(C(=O)N3CCN(c4ccccc4)CC3)c2)nc2cccnc21
610 | O=C(NCC1(CO)CC1)C(=O)Nc1cccc(N2CCCCC2=O)c1
752 | COc1ccc(-c2noc(C3CCCN3C(=O)Nc3ccc4c(c3)OCCO4)n2)cc1 (configuration not stated)
919 | c1ccc(CCc2nc(-c3ccnc(N4CCOCC4)c3)no2)cc1
633 | Cc1ccccc1CN1CCN(CC(=O)NC2CCN(Cc3ccccc3)CC2)C(=O)C1=O
1070 | Cn1c(=O)n(C)c2cc(CNc3ccc(Cl)cc3Cl)ccc21
823 | CC(C)c1ccc(CNC(=O)c2ccc3c(c2)nc2n3CCN(C(C)C)C2=O)cc1
836 | COc1ccc(-c2nc(N3CCCC(C)C3)c3ccccc3n2)cc1 (configuration not stated)
892 | O=C(NCCn1nnc2cc(C(=O)N3CCCC3)ccc21)Nc1ccccc1Cl
697 | CCn1cnc(S(=O)(=O)N2CCC(C(=O)NCCc3ccccc3)CC2)c1
579 | Cn1nc2n(c1=O)CCC(NS(=O)(=O)c1cccnc1)CC2 (configuration not stated)
628 | CC(C)n1c(=O)sc2cc(S(=O)(=O)N3CCC(C(=O)N4CCN(C)CC4)CC3)ccc21
650 | COc1ccc(OC)c(NC(=O)COc2cc(C)nc(N3CCCC3)n2)c1
679 | COc1ccc(C(=O)N2CC(n3cc(COCC4CC4)nn3)C2)cn1
795 | Cc1cc(C)n(Cc2nc(-c3ccc(NC(=O)C4CCCO4)cc3)oc2C)n1 (configuration not stated)

RP-LC retention time [s] | SMILES
707 | CCCn1ccc2oc(C)c(C(=O)N3CCN(c4ccc(OC)cc4)CC3)c2c1=O
667 | COc1cc(NC(=O)CSc2nccc(N3CCN(c4cccc(OC)c4)CC3)n2)cc(OC)c1
1080 | COC(=O)c1cc(S(=O)(=O)N2CCN(c3cccc(C)c3)C(C)C2)c(C)n1C (configuration not stated)
638 | CC(C)S(=O)(=O)N1CCC2(CC1)NCCCN=C2Nc1cccc(F)c1
837 | Cn1nc(-c2nc(C3CC3)no2)c2c1CCN(C(=O)c1c(F)cccc1Cl)C2
800 | O=C(C1CCN(S(=O)(=O)c2ccc(-c3noc(C4CC4)n3)cc2)CC1)N1CCc2ccccc21
620 | CC(Cc1ccco1)NC(=O)c1ccc2c(c1)nc1n2CCCCC1 (configuration not stated)
803 | Cc1nc(-c2ccc(N3CCN(C(=O)c4ccsc4)CC3)nc2)sc1C
819 | COC(=O)Cn1nc2ccc(S(=O)(=O)N3CCC(C)CC3)cn2c1=O
1040 | O=C(Nc1ccc(Cl)cc1)N1CCCC1c1nc(-c2ccccc2)no1 (configuration not stated)
641 | O=C(O)[C@@H]1CN(Cc2ccccc2)C[C@@H]1C(=O)N1CCc2ccccc21
616 | Cn1cc(CCN2CCC(C(=O)NC3CCCCCC3)CC2)c2cccnc21
936 | O=C(Nc1ccc2c(c1)OCO2)c1cn(-c2cc(N3CCCCC3)ncn2)cn1
710 | CC1CCCCN1CCNC(=O)c1c2c(cn(-c3ccc(Cl)cc3)c1=O)C(=O)CC(C)(C)C2 (configuration not stated)
701 | O=C(c1cc2c(s1)CCC(C(=O)N1CCOCC1)C2)N1CCCCC1 (configuration not stated)
729 | CCN(CC)c1nc2cc(C(=O)N3CCN(c4ccccn4)CC3)ccc2c(=O)n1Cc1ccccc1
947 | Cc1ccc(CNC(=O)C2(C)CCCN(C(=O)Nc3ccc(C)cc3C)C2)cc1 (configuration not stated)
674 | CN1CCN(c2nc(C3=C(c4c[nH]c5ccccc45)C(=O)NC3=O)c3ccccc3n2)CC1
1350 | CCCCOc1ccc(-c2nc(C3CC(=O)N(c4ccc(Cl)cc4)C3)no2)cc1 (configuration not stated)
629 | CCOC(=O)N1CCN(c2cc(C(=O)O)c3cc(NC(=O)c4ccccc4OC)ccc3n2)CC1
741 | Cc1ccccc1S(=O)(=O)N1CCC2(CC1)NCCN=C2NCc1ccc(Cl)cc1
668 | CN1CCN(CCc2ccc(Cl)c(Cl)c2)CC1

Second part, the compound before the results:

SMILES | RP-LC retention time [s]
O=c1ccc(-c2ccc3c(c2)OCO3)nn1CCc1nc(-c2ccc3c(c2)OCO3)no1 | 893
CCOc1ccc(NC(=O)c2c(NC(=O)c3ccncc3)sc3c2CCC3)cc1 | 1270
O=C(Cn1ccn2nc(-c3ccccc3)c(CO)c2c1=O)Nc1ccccc1 | 781
CCC(C)NC(=O)Cn1c(=O)n(CC(C)C)c(=O)c2nscc21 (configuration not stated) | 735
COc1ccc(OC)c(N2C=C(C#N)S(=O)(=O)c3ccc(F)cc32)c1 | 921
CCn1c(=O)c(C)nc2cc(-c3noc(-c4ccccc4C)n3)ccc21 | 1190
Cc1oc(-c2[nH]ncc2C(=O)N(C)C)cc1S(=O)(=O)Nc1cccc(Cl)c1C | 725
O=C(NCCc1ccccc1)C(=O)c1ccc[nH]1 | 824
O=C(Cc1csc2nc(-c3ccccc3)cn12)NC1CCCCCC1 | 808
Oc1ccc2c(ccc3[nH]cnc32)c1 | 622
COc1cccc(-c2ccnc3nc(-c4ccccc4OC)nn23)c1 | 860
Cc1nc(-c2csc(S(=O)(=O)N3CCCC(C(=O)Nc4ccccc4F)C3)c2)no1 (configuration not stated) | 929
O=C(c1ccccc1)N1C[C@H]2CNC(=O)[C@]23CCCC[C@@H]13 | 662
COc1cccc(-c2nc3ccc(Cl)cn3c2Nc2ccc(Cl)cc2)c1 | 873
CCS(=O)(=O)Nc1ccc(-c2noc(C(C)NS(=O)(=O)c3ccc(C)cc3)n2)cc1 (configuration not stated) | 836
Cc1ccccc1-c1nnc(COc2ccc(NC(=O)c3cncc(Br)c3)cc2)o1 | 968
C=CCNC(=O)c1ccc(-n2nc(C)cc2C)nc1 | 739
O=C(CSc1nnc2scc(-c3ccc(Cl)cc3)n12)Nc1ccccc1F | 839
CCC(c1cccs1)N1C(=O)[C@H]2CN(S(=O)(=O)c3cc(F)ccc3F)C[C@H]2C1=O (some centres not stated) | 936
COc1ccc(-c2nc(Cn3c(=O)c4c(C)cc(C)nc4n(C)c3=O)c(C)o2)cc1 | 1200
NC(=O)c1ccccc1NC(=O)C1CN(c2nc3c(F)cccc3s2)C1 | 706
CCOC(=O)C1=C(C)NC2=C(C(=O)CC(C)(C)C2)C1c1ccc([N+](=O)[O-])cc1 (configuration not stated) | 832

SMILES | RP-LC retention time [s]
Cc1ccc(NC(=O)NCC(c2cccnc2)c2cn(C)c3ccccc23)cc1C (configuration not stated) | 753
Cc1ccccc1Cn1cc(-c2ccncc2)cc1C(=O)NC(C)c1ccccn1 (configuration not stated) | 600
Cc1ccccc1-n1ccn(Cc2nc(-c3ccccc3)no2)c(=O)c1=O | 809
CCn1c(=O)c(C)nc2cc(C(=O)NCCc3c[nH]c4ccc(Cl)cc34)ccc21 | 833
COc1ccc(-c2csc(NC3=NS(=O)(=O)c4ccccc43)n2)cc1 | 886
O=C1c2cccc3cccc(c23)C(=O)N1CC(=O)N1CCCc2ccccc21 | 593
COc1ccc(Cl)cc1NC(=O)c1csc(-c2cn(C)c3ncccc23)n1 | 1230
COc1cc(NC(=O)N(C)CCc2noc(COc3ccc(F)cc3)n2)cc(OC)c1 | 874
CCOc1ccc(-c2cn3ccn(-c4ccc(Br)cc4)c(=O)c3n2)cc1 | 931
O=C(Cn1cccc(-c2nc(-c3ccc(F)cc3)no2)c1=O)Nc1ccc(Br)cc1 | 992
Cc1nn(C)cc1CN1CC(F)(F)C[C@H]1c1nnc(-c2ccccc2)o1 | 784
CCn1cc(CCNC(=O)NCC(C)C)c2cccnc21 | 636
CCCCN(CCCNC(=O)C1CCN(S(=O)(=O)CCC)CC1)Cc1ccccc1 | 672
CCOC(=O)c1ccc(Nc2nnc(CSc3nc(C)cc(C)n3)s2)cc1 | 834
CCOc1cccc(-c2noc(Cn3ccn(-c4ccccc4C)c(=O)c3=O)n2)c1 | 911
COc1ccccc1-n1ccnc(NC(=O)Nc2ccc(F)cc2)c1=O | 896
COC(=O)c1c(C)[nH]c(C(=O)N2CCC(CC(=O)NC3CCCCC3)CC2)c1C | 730
O=C(Nc1cc(F)ccc1Cl)c1cnc(-c2ccccc2)nc1-c1ccncc1 | 1000
CC1Oc2ccc(-c3csc(NS(C)(=O)=O)n3)cc2NC1=O (configuration not stated) | 609
Cc1cc2c(c(=O)n(-c3ccccc3)c(=O)n2CC(=O)Nc2ccc(Br)cc2F)n1C | 894
O=c1c2sccc2n(Cc2nc(-c3ccc(F)c(Cl)c3)no2)c(=O)n1-c1ccc(F)cc1 | 1090

Source: the METLIN SMRT retention time set (Domingo-Almenara et al. 2019)
